# ChEMBL document CHEMBL5385930, “Synthesis, Structure-Activity Relationship Study, Bioactivity, and Nephrotoxicity Evaluation of the Proposed Structure of the Cyclic Lipodepsipeptide Brevicidine B” (J Nat Prod, 2024)
# Positions of bridges follow the written chain, without caps; N, C: chain ends. Non-standard residues stand in square brackets, D forms with d. Residues, ends and D or L forms follow the SMILES beside them. ξ: configuration not given here. *: point of attachment. Hexanoyl(4ξ-Me) = CCC(C)CCC(=O)*; dOrn = NCCC[C@@H](N)C(=O)O; Orn = NCCC[C@H](N)C(=O)O
# What was measured:
# Staphylococcus aureus [1] = assay: Antibacterial activity against Staphylococcus aureus ATCC 25923 assessed as reduction in bacterial growth by microbroth dilution assay; format: functional
# Klebsiella pneumoniae [2] = assay: Antibacterial activity against Klebsiella pneumoniae ATCC 33495 assessed as reduction in bacterial growth by microbroth dilution assay; format: functional
# Klebsiella pneumoniae [3] = assay: Antibacterial activity against pandrug-resistant Klebsiella pneumoniae MS6671 assessed as reduction in bacterial growth by microbroth dilution assay; format: functional
# Staphylococcus aureus [4] = assay: Antibacterial activity against methicillin-resistant Staphylococcus aureus […] assessed as reduction in bacterial growth by microbroth dilution assay; format: functional
# Escherichia coli [5] = assay: Antibacterial activity against Escherichia coli ATCC 25922 assessed as reduction in bacterial growth by microbroth dilution assay; format: functional
# Enterococcus faecalis = assay: Antibacterial activity against vancomycin resistant Enterococcus faecalis V583 assessed as reduction in bacterial growth by microbroth dilution assay; format: functional
# Acinetobacter baumannii [6] = assay: Antibacterial activity against Acinetobacter baumannii ATCC 19606 assessed as reduction in bacterial growth by microbroth dilution assay; format: functional
# Pseudomonas aeruginosa = assay: Antibacterial activity against Pseudomonas aeruginosa ATCC 27853 assessed as reduction in bacterial growth by microbroth dilution assay; format: functional
# Escherichia coli [7] = assay: Antibacterial activity against multidrug resistant Escherichia coli MS834 harbouring mcr-1 assessed as reduction in bacterial growth by microbroth dilution assay; format: functional
# Acinetobacter baumannii [8] = assay: Antibacterial activity against multidrug resistant Acinetobacter baumannii AB5075 assessed as reduction in bacterial growth by microbroth dilution assay; format: functional
# Klebsiella pneumoniae [9] = assay: Antibacterial activity against Klebsiella pneumoniae ATCC 700603 assessed as reduction in bacterial growth by microbroth dilution assay; format: functional
# [10] = Nephrotoxicity in human Kidney organoid assessed as at 300 uM measured after 48 hrs by bright field imaging analysis; format: toxicity, tissue-based
# Staphylococcus aureus [11] = assay: Antibacterial activity against methicillin-resistant Staphylococcus aureus NCTC1044 assessed as reduction in bacterial growth by microbroth dilution assay; format: functional
# Staphylococcus aureus [12] = assay: Antibacterial activity against methicillin-resistant Staphylococcus aureus EMRSA-15 assessed as reduction in bacterial growth by microbroth dilution assay; format: functional
# [13] = Nephrotoxicity in human Kidney organoid assessed as deterioration of renal tubule measured after 48 hrs by bright field imaging analysis; format: toxicity, tissue-based; conditions: dose 100-1000 µM
# Staphylococcus aureus [14] = assay: Antibacterial activity against methicillin-resistant Staphylococcus aureus RA120 assessed as reduction in bacterial growth by microbroth dilution assay; format: functional
# [15] = Nephrotoxicity in human Kidney organoid assessed as at 100 uM measured after 48 hrs by bright field imaging analysis; format: toxicity, tissue-based
Compound,MIC (Staphylococcus aureus [1]),MIC (Klebsiella pneumoniae [2]),MIC (Klebsiella pneumoniae [3]),MIC (Staphylococcus aureus [4]),MIC (Escherichia coli [5]),MIC (Enterococcus faecalis),MIC (Acinetobacter baumannii [6]),MIC (Pseudomonas aeruginosa),MIC (Escherichia coli [7]),MIC (Acinetobacter baumannii [8]),MIC (Klebsiella pneumoniae [9]),Activity [10],MIC (Staphylococcus aureus [11]),MIC (Staphylococcus aureus [12]),Activity [13],MIC (Staphylococcus aureus [14]),Activity [15]
CCC(C)CCC(=O)N[C@H](CC(N)=O)C(=O)N[C@H](CCCCN)C(=O)N[C@H](Cc1c[nH]c2ccccc12)C(=O)N[C@H](CCCN)C(=O)N[C@@H](CCCN)C(=O)NCC(=O)N[C@H](CCCN)C(=O)N[C@@H](Cc1c[nH]c2ccccc12)C(=O)N[C@@H]1C(=O)N[C@@H]([C@@H](C)CC)C(=O)NCC(=O)N[C@@H](CO)C(=O)O[C@@H]1C (some centres undefined),> 32 µg/mL,> 32 µg/mL,> 32 µg/mL,> 32 µg/mL,> 32 µg/mL,> 32 µg/mL,> 32 µg/mL,16 µg/mL,> 32 µg/mL,> 32 µg/mL,> 32 µg/mL,–,–,–,–,–,–
CCC(C)CCC(=O)N[C@H](CC(N)=O)C(=O)N[C@H](Cc1c[nH]cn1)C(=O)N[C@H](Cc1c[nH]c2ccccc12)C(=O)N[C@H](CCCN)C(=O)N[C@@H](CCCN)C(=O)NCC(=O)N[C@H](CCCN)C(=O)N[C@@H](Cc1c[nH]c2ccccc12)C(=O)N[C@@H]1C(=O)N[C@@H]([C@@H](C)CC)C(=O)NCC(=O)N[C@@H](CO)C(=O)O[C@@H]1C (some centres undefined),> 32 µg/mL,> 32 µg/mL,> 32 µg/mL,> 32 µg/mL,> 32 µg/mL,> 32 µg/mL,> 32 µg/mL,> 32 µg/mL,> 32 µg/mL,> 32 µg/mL,> 32 µg/mL,–,–,–,–,–,–
COLISTIN,–,0.25 µg/mL,32 µg/mL,–,0.125 µg/mL,–,0.5 µg/mL,1 µg/mL,4 µg/mL,1 µg/mL,0.25 µg/mL,–,–,–,–,–,–
CN[C@H](CC(C)C)C(=O)N[C@H]1C(=O)N[C@@H](CC(N)=O)C(=O)N[C@H]2C(=O)N[C@H]3C(=O)N[C@H](C(=O)N[C@H](C(=O)O)c4cc(O)cc(O)c4-c4cc3ccc4O)[C@H](O)c3ccc(c(Cl)c3)Oc3cc2cc(c3O[C@@H]2O[C@H](CO)[C@@H](O)[C@H](O)[C@H]2O[C@H]2C[C@](C)(N)[C@H](O)[C@H](C)O2)Oc2ccc(cc2Cl)[C@H]1O [VANCOMYCIN],–,–,–,–,–,32 µg/mL,–,–,–,–,–,–,–,–,–,–,–
CCC(C)CCC(=O)N[C@H](CC(N)=O)C(=O)N[C@H](Cc1ccccc1)C(=O)N[C@H](Cc1c[nH]c2ccccc12)C(=O)N[C@H](CCCN)C(=O)N[C@@H](CCCN)C(=O)NCC(=O)N[C@H](CCCN)C(=O)N[C@@H](Cc1c[nH]c2ccccc12)C(=O)N[C@@H]1C(=O)N[C@@H]([C@@H](C)CC)C(=O)NCC(=O)N[C@@H](CO)C(=O)O[C@@H]1C (some centres undefined),> 32 µg/mL,4 µg/mL,32 µg/mL,> 32 µg/mL,4 µg/mL,> 32 µg/mL,16 µg/mL,8 µg/mL,8 µg/mL,16 µg/mL,16 µg/mL,Toxic,> 32 µg/mL,> 32 µg/mL,Dose-Dependent Effect,> 32 µg/mL,Non-Toxic
CC1(C)S[C@@H]2[C@H](NC(=O)[C@H](N)c3ccc(O)cc3)C(=O)N2[C@H]1C(=O)O [AMOXICILLIN],0.25 µg/mL,–,–,> 32 µg/mL,–,0.5 µg/mL,–,–,–,–,–,–,32 µg/mL,> 32 µg/mL,–,> 32 µg/mL,–
CCC(C)CCC(=O)N[C@H](CC(N)=O)C(=O)N[C@H](C(=O)N[C@H](Cc1c[nH]c2ccccc12)C(=O)N[C@H](CCCN)C(=O)N[C@@H](CCCN)C(=O)NCC(=O)N[C@H](CCCN)C(=O)N[C@@H](Cc1c[nH]c2ccccc12)C(=O)N[C@@H]1C(=O)N[C@@H]([C@@H](C)CC)C(=O)NCC(=O)N[C@@H](CO)C(=O)O[C@@H]1C)C(c1ccccc1)c1ccccc1 (some centres undefined),> 32 µg/mL,32 µg/mL,> 32 µg/mL,> 32 µg/mL,32 µg/mL,> 32 µg/mL,32 µg/mL,> 32 µg/mL,16 µg/mL,32 µg/mL,> 32 µg/mL,–,–,–,–,–,–
CCC(C)CCC(=O)N[C@H](CC(N)=O)C(=O)N[C@H](Cc1ccc(O)cc1)C(=O)N[C@H](Cc1c[nH]c2ccccc12)C(=O)N[C@H](CCCN)C(=O)N[C@@H](CCCN)C(=O)NCC(=O)N[C@H](CCCN)C(=O)N[C@@H](Cc1c[nH]c2ccccc12)C(=O)N[C@@H]1C(=O)N[C@@H]([C@@H](C)CC)C(=O)NCC(=O)N[C@@H](CO)C(=O)O[C@@H]1C (some centres undefined) ({Hexanoyl(4ξ-Me)}-[dN][dY][dW][dOrn][Orn]G[dOrn]WTIGS; ester 9-C),> 32 µg/mL,2 µg/mL,16 µg/mL,> 32 µg/mL,4 µg/mL,> 32 µg/mL,16 µg/mL,4 µg/mL,4 µg/mL,16 µg/mL,8 µg/mL,Toxic,–,–,Dose-Dependent Effect,–,Non-Toxic
